The values below come from US4204065A, “Soft quaternary surface active agents and method of using same” (Interx Research Corporation, priority 1978, dated 1980).

Data set [1] deals with mouse. The note with it: cited from earlier work.
Data set [2] has as its system mouse. The note with it: cited from earlier work. This is another data set of the same source.
The subject of another data set is rat. The note with it: cited from earlier work.
The next data set relates to S. aureus. The data set can be described thus: microbe, parasite or virus in culture. The note with it: Staphylococcus aureus, pH 7, read-out: Minimal inhibitory concentration (MIC), S. aureus. The class given is cell-based.
For the next data set, the system named is B. subtilis. Kind of data set: Minimal inhibitory concentration (MIC), B. subtilis. In kind it is cell-based. The note with it: Bacillus subtilis; 0.1 M NaH2PO4, pH 7.0.
Another data set has as its system S. typhimirum. Kind of data set: Minimal inhibitory concentration (MIC), S. typhimirum. The class given is cell-based. The note with it: 0.1 M NaH2PO4, pH 7.0.
The subject of a further data set is P. aeruginosa. Kind of data set: Minimal inhibitory concentration (MIC), P. aeruginosa. In kind it is cell-based. The note with it: Pseudomonas aeruginosa; 0.1 M NaH2PO4, pH 7.0.
In a further data set the test system is S. pyogenes. Kind of data set: Minimal inhibitory concentration (MIC), S. pyogenes. In kind it is cell-based. The note with it: Streptococcus pyogenes; 0.1 M NaH2PO4, pH 7.0.
Data set [3] in a line: Saturated solubility (footnote of MIC table). In kind it is physicochemical. The note with it: 0.1 M NaH2PO4, pH 7.0; footnote b; read-out: Approximately the saturated solubility. From the text:
^b Approximately the saturated solubility.

In data set [4] the test system is MCR-ICR White Swiss Male Mice. The note with it: mouse; for Mortality 24 hrs. / Mortality 7 days: in vivo.
The test system of the next data set is White Male Mice MCR-ICR. The note with it: oral; for Mortality 24 hrs. / Mortality 7 days: deaths of 10 animals per dose.
The nature of data set [5]: in vivo. The note with it: mouse, iv.
Data set [6] is described as follows: in vivo. The note with it: mouse, po.

Entries after “also recorded” stand apart in the source; their conditions may differ. Where two headings read alike, the source gives them in different places.

For the molecule `CCCCCCCCCCCCCCCC[n+]1ccccc1` [Compound 1, cetylpyridinium chloride], the LD50 oral in the data set on mouse [1] is 108 mg/kg. Besides, the “LD50 IP” value in the data set on mouse [2] is recorded as 10 mg/kg. In addition, the “LD50 IV” value with rat was 30 mg/kg.
As to `CCCCCCCC(=O)OC[n+]1ccccc1` [Compound 2, n-Octanoyloxymethylpyridinium chloride], the MIC worked out at 529 µg/mL in the data set with S. aureus; 529 µg/mL with B. subtilis; 1060 µg/mL in the data set on S. typhimirum; 1060 µg/mL in the data set on P. aeruginosa; 529 µg/mL against S. pyogenes.
Regarding `CCCCCCCCCCCC(=O)OC[n+]1ccccc1` [Compound 3, n-Dodecanoyloxymethylpyridinium chloride], the MIC is 8.9 µg/mL in the data set on S. aureus; 143 µg/mL in the data set with B. subtilis; 35.8 µg/mL with S. typhimirum; less than 2.2 µg/mL against P. aeruginosa; 71.5 µg/mL in the data set on S. pyogenes.
As for `CCCCCCCCCCCCCC(=O)OC[n+]1ccccc1` [Compound 4, n-Tetradecanoyloxymethylpyridinium chloride], the MIC in the data set on S. aureus is 8.1 µg/mL; in the data set with B. subtilis, 8.3 µg/mL; with S. typhimirum, 133 µg/mL; with P. aeruginosa, greater than 1060 µg/mL; in the data set with S. pyogenes it was 4.2 µg/mL.
`CCCCCCCCCCCCCCCC(=O)OC[n+]1ccccc1` [Compound 5, n-Hexadecanoyloxymethylpyridinium chloride]: the MIC with S. aureus came out at 16.7 µg/mL; against B. subtilis, 1070 µg/mL; against S. typhimirum, 1070 µg/mL; against P. aeruginosa, 1070 µg/mL; in the data set with S. pyogenes, 268 µg/mL.
Take `CCCCCCCCCCCC(=O)OC[n+]1ccn(C)c1` [Compound 6]: the MIC is 4.1 µg/mL in the data set on S. aureus; 16.3 µg/mL in the data set with B. subtilis; 65.3 µg/mL with S. typhimirum; 261 µg/mL with P. aeruginosa; 2 µg/mL against S. pyogenes.
Take `CCCCCCCCCCCCCC(=O)OC[n+]1ccn(C)c1` [Compound 7]: the MIC in the data set on S. aureus was less than 2.2 µg/mL; in the data set on B. subtilis, 4.4 µg/mL; in the data set with S. typhimirum, 69.7 µg/mL; against P. aeruginosa it was greater than 1120 µg/mL; in the data set on S. pyogenes it was greater than 2.2 µg/mL.
One may read the solubility as how much of the substance goes into solution per volume. Take `CCCCCCCCCCCCCCCC(=O)OC[n+]1ccn(C)c1` [Compound 8]: the MIC was 1.3 µg/mL with S. aureus; greater than 42.4 µg/mL with B. subtilis; greater than 42.4 µg/mL against S. typhimirum; greater than 42.4 µg/mL in the data set on P. aeruginosa; greater than 42.4 µg/mL against S. pyogenes. For the same molecule, in data set [3], the solubility is roughly 42.4 µg/mL.
As usually defined, the LD50 is the dose at which mortality reaches 50%. The low end stands for a more toxic substance, the high end for a less toxic substance. As to `CCCCCCCCCCCC(=O)OC[n+]1ccn(C)c1` [IRx-1229], the “Symptoms: time of death” value in data set [4] (IV) was “Death either occurred immediately after injection or several day later, never between 5 minutes and 24 hours after injection”. In addition, the “Symptoms: cause and signs of immediate death” value in [4] (IV, death immediately following injection) is given as “circulatory collapse because of too large an injection or precipitation of the compound in the bloodstream; also recorded: death was preceded by convulsions”. For the same molecule, the “Mortality 24 hrs.” value in data set [4] (133 mg/kg) was 1/3; in [4] (iv, 35.09 mg/kg), 0/5; in [4] (iv, 42.5 mg/kg), 0/5; in [4] (iv, 81.25 mg/kg) it was 1/2; in data set [4] (iv, 87.73 mg/kg), 2/4; in data set [4] (iv, 102.47 mg/kg), 0/8. The “Mortality 24 hrs.” value in [4] (iv, 199.5 mg/kg) is on record as 1/1; with White Male Mice MCR-ICR (1.68 g/kg) it was 0; with White Male Mice MCR-ICR (3.35 g/kg), 2; in the data set with White Male Mice MCR-ICR (5.00 g/kg), 7. Besides, the “Mortality 7 days” value in data set [4] (133 mg/kg) is on record as 1/3; in data set [4] (iv, 35.09 mg/kg) it was 0/5; in [4] (iv, 42.5 mg/kg), 0/5; in data set [4] (iv, 81.25 mg/kg), 1/2; in data set [4] (iv, 87.73 mg/kg) it was 2/4; in data set [4] (iv, 102.47 mg/kg) it was 1/8. Besides, the “Mortality 7 days” value is 1/1 in data set [4] (iv, 199.5 mg/kg); 1 in the data set with White Male Mice MCR-ICR (1.68 g/kg); 3 in the data set on White Male Mice MCR-ICR (3.35 g/kg); 7 in the data set with White Male Mice MCR-ICR (5.00 g/kg). For the same molecule, the “Deaths per day, Day 1” value was 0 in the data set with White Male Mice MCR-ICR (1.68 g/kg), 2 in the data set on White Male Mice MCR-ICR (3.35 g/kg) and 7 in the data set with White Male Mice MCR-ICR (5.00 g/kg). For the same molecule, in the data set with White Male Mice MCR-ICR (1.68 g/kg), the “Deaths per day, Day 2” value was 1. The “Deaths per day, Day 3” value with White Male Mice MCR-ICR (3.35 g/kg) worked out at 1. Also, the figures for the LD50 at 24 h in “in vivo [5]” and in “in vivo [6]” were 100 to 133 mg/kg and 4300 mg/kg, respectively. This molecule also displayed an LD50 at 168 h in “in vivo [6]” of 4110 mg/kg.
